The values below come from patent US8268840B2, “Pyrimidinyl pyridone inhibitors of kinases” (Roche Palo Alto LLC, priority 2008, dated 2012).

Some results are limits rather than exact numbers.

`Nc1cc(=O)n(C2CCCC2)c2nc(NC3CCOCC3)ncc12` [Compound I-33, 5-Amino-8-cyclopentyl-2-(tetrahydro-pyran-4-ylamino)-8H-pyrido[2,3-d]pyrimidin-7-one] registered a melting point of 120 to 124 °C.

For `Nc1cc(=O)n(CCCO)c2nc(NC3CCCCC3)ncc12` [Compound I-8, 5-Amino-2-cyclohexylamino-8-(3-hydroxy-propyl)-8H-pyrido[2,3-d]pyrimidin-7-one], the melting point fell in the range of 131 to 132.5 °C.

Molecule `CC(=O)N[C@H]1CC[C@H](Nc2ncc3c(N)cc(=O)n(CCCO)c3n2)CC1` [Compound I-42, N-{4-[5-Amino-8-(3-hydroxy-propyl)-7-oxo-7,8-dihydro-pyrido[2,3-d]pyrimidin-2-ylamino]-cyclohexyl}-acetamide] came in with a melting point above 300 °C.

In turn, `CC(=O)N[C@H]1CC[C@H](Nc2ncc3c(N)cc(=O)n([C@@H]4CC[C@@H](O)C4)c3n2)CC1` [Compound I-18, N-{4-[5-Amino-8-((1R,3R)-3-hydroxy-cyclopentyl)-7-oxo-7,8-dihydro-pyrido[2,3-d]pyrimidin-2-ylamino]-cyclohexyl}-acetamide] registered a melting point of 210 to 211.5 °C.

`Cc1c(N)c2cnc(N[C@H]3CC[C@H](C(=O)N4CCC(O)CC4)CC3)nc2n(C2CCC2)c1=O` [Compound I-15, 5-Amino-8-cyclobutyl-2-[4-(4-hydroxy-piperidine-1-carbonyl)-cyclohexylamino]-6-methyl-8H-pyrido[2,3-d]pyrimidin-7-one] had a melting point of 191.5 to 193 °C.

`Cc1c(N)c2cnc(N[C@H]3CC[C@H](C(C)(C)O)CC3)nc2n(C2CCC2)c1=O` [Compound I-20, 5-Amino-8-cyclobutyl-2-[4-(1-hydroxy-1-methyl-ethyl)-cyclohexylamino]-6-methyl-8H-pyrido[2,3-d]pyrimidin-7-one] came in with a melting point of 223 to 224.8 °C.

Take `Nc1cc(=O)n(CC2CC2)c2nc(NC3CCC3)ncc12` [Compound I-55, 5-Amino-2-cyclobutylamino-8-cyclopropylmethyl-8H-pyrido[2,3-d]pyrimidin-7-one]: the melting point was 236.1 to 239.1 °C.

The molecule `Cc1c(N)c2cnc(NC3CCN(S(C)(=O)=O)CC3)nc2n([C@@H]2CCOC2)c1=O` [Compound I-53, 5-Amino-2-(1-methanesulfonyl-piperidin-4-ylamino)-6-methyl-8-(R)-tetrahydro-furan-3-yl-8H-pyrido[2,3-d]pyrimidin-7-one] showed a melting point above 300 °C.

Turning to `Nc1c(F)c(=O)n(C2CCC2)c2nc(NC3CCCCC3)ncc12` [Compound I-4, 5-Amino-8-cyclobutyl-2-cyclohexylamino-6-fluoro-8H-pyrido[2,3-d]pyrimidin-7-one], the melting point is 286 to 287 °C.

`Cc1cccc(C)c1Nc1ncc2c(N)c(C)c(=O)n(C3CCC3)c2n1` [Compound I-70, 5-Amino-8-cyclobutyl-2-(2,6-dimethyl-phenylamino)-6-methyl-8H-pyrido[2,3-d]pyrimidin-7-one]: the melting point was in the range of 213 to 214 °C.

Turning to `CC(=O)N[C@H]1CC[C@H](Nc2ncc3c(N)c(C)c(=O)n(C4CCCC4)c3n2)CC1` [Compound I-41, N-[4-(5-Amino-8-cyclopentyl-6-methyl-7-oxo-7,8-dihydro-pyrido[2,3-d]pyrimidin-2-ylamino)-cyclohexyl]-acetamide], the melting point was in the range of 296.2 to 298.2 °C.

On to `Nc1cc(=O)n(C2CC2)c2nc(NC3CCOCC3)ncc12` [Compound I-54, 5-Amino-8-cyclopropyl-2-(tetrahydro-pyran-4-ylamino)-8H-pyrido[2,3-d]pyrimidin-7-one], for which the melting point fell in the range of 264.4 to 266.8 °C.

`CC(=O)N[C@H]1CC[C@H](Nc2ncc3c(N)cc(=O)n(C4CCCC4)c3n2)CC1` [Compound I-11, N-[4-(5-Amino-8-cyclopentyl-7-oxo-7,8-dihydro-pyrido[2,3-d]pyrimidin-2-ylamino)-cyclohexyl]-acetamide] yielded a melting point of 172.6 to 176.6 °C.

Consider `CCc1c(N)c2cnc(N[C@H]3CC[C@H](NC(C)=O)CC3)nc2n(C2CCCC2)c1=O` [Compound I-23, N-[4-(5-Amino-8-cyclopentyl-6-ethyl-7-oxo-7,8-dihydro-pyrido[2,3-d]pyrimidin-2-ylamino)-cyclohexyl]-acetamide], for which the melting point is above 300 °C.

In turn, `Cc1c(N)c2cnc(N[C@H]3CC[C@H](C(=O)N4CCC(O)CC4)CC3)nc2n([C@@H]2CCOC2)c1=O` [Compound I-47, 5-Amino-2-[4-(4-hydroxy-piperidine-1-carbonyl)-cyclohexylamino]-6-methyl-8-(R)-tetrahydro-furan-3-yl-8H-pyrido[2,3-d]pyrimidin-7-one] came in with a melting point of 173 to 174 °C.

Take `CC(C)c1c(N)c2cnc(N[C@H]3CC[C@H](C(=O)N4CCC(O)CC4)CC3)nc2n(C2CCC2)c1=O` [Compound I-25, 5-Amino-8-cyclobutyl-2-[4-(4-hydroxy-piperidine-1-carbonyl)-cyclohexylamino]-6-isopropyl-8H-pyrido[2,3-d]pyrimidin-7-one]: the melting point lay within 170 to 171 °C.

Molecule `COC(=O)N[C@H]1CC[C@H](Nc2ncc3c(N)cc(=O)n(CCCO)c3n2)CC1` [Compound I-43, {4-[5-Amino-8-(3-hydroxy-propyl)-7-oxo-7,8-dihydro-pyrido[2,3-d]pyrimidin-2-ylamino]-cyclohexyl}-carbamic acid methyl ester] showed a melting point of 190 to 191 °C.

Regarding `N#Cc1c(N)c2cnc(N[C@H]3CC[C@H](C(=O)N4CCC(O)CC4)CC3)nc2n(C2CCC2)c1=O` [Compound I-38, 5-Amino-8-cyclobutyl-2-[4-(4-hydroxy-piperidine-1-carbonyl)-cyclohexylamino]-7-oxo-7,8-dihydro-pyrido[2,3-d]pyrimidine-6-carbonitrile], the melting point was above 300 °C.

In turn, `Cc1ccccc1Nc1ncc2c(N)c(C)c(=O)n(C3CCC3)c2n1` [Compound I-62, 5-Amino-8-cyclobutyl-6-methyl-2-o-tolylamino-8H-pyrido[2,3-d]pyrimidin-7-one] showed a melting point of 186 to 187 °C.

With `CS(=O)(=O)N[C@H]1CC[C@H](Nc2ncc3c(N)cc(=O)n(C4CCCCC4)c3n2)CC1` [Compound I-14, N-[4-(5-Amino-8-cyclohexyl-7-oxo-7,8-dihydro-pyrido[2,3-d]pyrimidin-2-ylamino)-cyclohexyl]-methanesulfonamide], the melting point was above 300 °C.

The molecule `Nc1cc(=O)n(Cc2ccccc2)c2nc(NC3CCCCC3)ncc12` [Compound I-66, 5-Amino-8-benzyl-2-cyclohexylamino-8H-pyrido[2,3-d]pyrimidin-7-one] showed a melting point of 221.9 to 223.8 °C.

Take `CC(=O)N1CCC(Nc2ncc3c(N)cc(=O)n(C4CCCC4)c3n2)CC1` [Compound I-30, 2-(1-Acetyl-piperidin-4-ylamino)-5-amino-8-cyclopentyl-8H-pyrido[2,3-d]pyrimidin-7-one]: the melting point fell in the range of 282 to 285 °C.

On to `CCOC(=O)N1CCC(Nc2ncc3c(N)c(C)c(=O)n(C4CCC4)c3n2)CC1` [Compound I-56, 4-(5-Amino-8-cyclobutyl-6-methyl-7-oxo-7,8-dihydro-pyrido[2,3-d]pyrimidin-2-ylamino)-piperidine-1-carboxylic acid ethyl ester], for which the melting point is 201.3 to 202.6 °C.

One may read the melting point as the temperature, or range, at which the solid turns liquid.
